Measurements published in BindingDB's records for doi:10.1016/j.bmcl.2015.06.096 (Vanderbilt University Medical Center, 2015).

Target: Metabotropic glutamate receptor 5 (Homo sapiens, UniProt P41594)
Assay: Positive allosteric modulation of human mGlu5 receptor expressed in HEK293 cells by calcium mobilization assay

Chain of Metabotropic glutamate receptor 5 (P41594 whole entry): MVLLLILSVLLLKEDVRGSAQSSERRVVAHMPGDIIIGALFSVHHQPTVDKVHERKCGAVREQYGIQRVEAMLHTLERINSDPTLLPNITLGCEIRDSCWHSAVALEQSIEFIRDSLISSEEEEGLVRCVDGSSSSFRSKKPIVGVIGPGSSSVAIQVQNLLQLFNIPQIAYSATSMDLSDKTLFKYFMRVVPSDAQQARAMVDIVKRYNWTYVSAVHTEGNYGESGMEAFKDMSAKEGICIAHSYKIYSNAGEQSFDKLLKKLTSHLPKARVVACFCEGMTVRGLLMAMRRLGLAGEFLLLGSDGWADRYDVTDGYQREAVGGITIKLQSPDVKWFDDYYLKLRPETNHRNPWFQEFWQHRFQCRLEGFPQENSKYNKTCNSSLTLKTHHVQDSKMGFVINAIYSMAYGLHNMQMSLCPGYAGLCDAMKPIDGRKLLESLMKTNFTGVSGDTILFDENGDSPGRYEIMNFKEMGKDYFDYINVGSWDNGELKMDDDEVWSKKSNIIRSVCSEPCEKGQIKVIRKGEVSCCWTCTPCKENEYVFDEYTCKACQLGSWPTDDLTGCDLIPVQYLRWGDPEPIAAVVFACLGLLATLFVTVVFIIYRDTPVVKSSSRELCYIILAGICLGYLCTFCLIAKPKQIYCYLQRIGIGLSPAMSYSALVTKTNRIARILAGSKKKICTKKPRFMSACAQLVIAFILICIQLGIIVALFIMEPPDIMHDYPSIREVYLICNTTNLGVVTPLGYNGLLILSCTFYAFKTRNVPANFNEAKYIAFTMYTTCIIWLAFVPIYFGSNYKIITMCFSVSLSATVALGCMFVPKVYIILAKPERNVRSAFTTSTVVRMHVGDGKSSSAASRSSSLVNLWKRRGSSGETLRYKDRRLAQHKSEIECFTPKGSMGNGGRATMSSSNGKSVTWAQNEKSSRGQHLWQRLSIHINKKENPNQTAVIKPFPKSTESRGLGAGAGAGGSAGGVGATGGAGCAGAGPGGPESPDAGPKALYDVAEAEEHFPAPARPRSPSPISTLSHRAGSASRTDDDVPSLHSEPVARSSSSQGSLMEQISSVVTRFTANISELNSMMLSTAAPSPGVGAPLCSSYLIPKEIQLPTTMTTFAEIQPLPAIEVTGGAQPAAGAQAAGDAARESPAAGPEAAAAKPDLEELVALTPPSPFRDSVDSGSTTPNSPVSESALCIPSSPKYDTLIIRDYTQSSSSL

SMILES: O=C(c1c(F)cccc1F)N1CCc2nc(COc3cccc(F)c3)oc2C1
- EC50: 323 nM
